Here are results for three molecules from patent US20130217681A1, “METHOD AND COMPOSITION FOR WEIGHT-GAIN MANAGEMENT” (TECHNION RESEARCH AND DEVELOPMENT FOUNDATION LTD., priority 2010, published 2013).

The nature of series [1]: betahistine in a small group (n=7) of olanzapine-treated first-episode schizophrenia patients. In kind it is in vivo, Human. The text has this: Similarly, betahistine was associated with a modest attenuation of weight gain in a small group (n=7) of olanzapine-treated first-episode schizophrenia patients: the betahistine group 3.86 kg versus the placebo group 5.03 kg.
Similarly, betahistine was associated with a modest attenuation of weight gain in a small group (n=7) of olanzapine-treated first-episode schizophrenia patients: the betahistine group gained 3.86 kg versus the placebo group 5.03 kg.

The next series has as its system animal models of obesity. The note with it: cited from earlier work.
The conditions of series [2]: olanzapine-treated first episode schizophrenia patients, cited from earlier work.
For series [3] the following is noted: baseline to endpoint, 6 weeks.
Source text: Human patients (male and female, age 18-45) hospitalized at Tirat Carmel Mental Health Center (Tirat Carmel, Israel) were screened. Eligible patients were interviewed using the Structured Clinical Interview for DSM-IV-TR Axis I Disorders, Patient Edition, and those who meet DSM-IV-TR criteria for schizophrenic or schizophreniform disorder were enrolled.
A double-blind, placebo-controlled, randomized design was used in the study.
The conditions of series [4]: cited from earlier work; for weight gain, mean (SD): olanzapine-treated patients, reboxetine 4 mg/day, 31 patients reboxetine, 29 placebo.
For series [5] the following is noted: in 10 weeks; cited from earlier work.

“And” between values parts separate entries of the source, which are not always exact repeats. Equal entries are not always repeated. Where two headings read alike, the source gives them in different places.

`CNCCc1ccccn1` [betahistine]: the results for the “weight gain, mean (SD)” value in series [1] and in series [1] (listed as Olanzapine+betahistine) were 3.86 kg and 3.86 (0.9) kg, respectively. In the series on animal models of obesity, the “food intake” value is on record as “inhibit food intake”. Besides, the “tolerability” value in series [2] is on record as “safe, well tolerated”. In addition, the “effect on weight gain” value in series [2] (small sample, open design) is “prevents weight gain”.
Turning to `Cc1cc2c(s1)Nc1ccccc1N=C2N1CCN(C)CC1` [olanzapine + placebo, olanzapine], the “patients who gained at least 7% of their initial weight (clinically significant weight gain)” value (6 week trial, 30 vs 13 patients) was found to be 46.1%. The “weight gain during the trial, average (SD)” value (6 week trial, olanzapine 10 mg, betahistine 48 mg/day, reboxetine 4 mg, Example 1) is 5.5 (2.7) kg. Further, the body weight worked out at 70.4 kg (Week 1); 71.3 kg (Week 2); 72 kg (Week 3); 73.4 kg (Week 4); 74.2 kg (Week 5); 75.4 kg (Week 6). Moreover, the “increase in body weight, Δ from baseline” value is 1.2 kg^ (Week 1); 2.3 kg (Week 2); 3.8 kg (Week 3); 4.3 kg (Week 4); 5.4 kg (Week 5); 5.5 kg (Week 6). Besides, the “change in triglyceride level” value in series [3] is given as “almost two-fold increase”. For the same molecule, in series [4], the “weight gain, mean (SD)” value was 4.91 (2.45) kg. For the same molecule, in series [5], the “weight gain induced in treated patients” value is recorded as 3.5 kg.
Take `CCOc1ccccc1OC(c1ccccc1)C1CNCCO1` (centres unmarked) [reboxetine]: in series [4] (low-dose 4 mg/day, schizophrenic patients treated with olanzapine), the “weight-attenuating effect” value was “significant weight-attenuating effect”. Also, the “weight gain, mean (SD)” value in series [4] is 3.31 (2.73) kg and 3.31 kg; in series [4] (listed as Olanzapine+reboxetine) it was 3.31 (2.73) kg. Also, in series [4] (reboxetine-olanzapine treated patients), the “tolerability” value was “safe and well tolerated and no clinically significant side effects were found”.
